Key:
Format in all cases: biochemical
MMP-12 = target: T1, MMP-12 (Homo sapiens, UniProt P39900); assay: Assay for inhibitory activities on MMPs (fluorogenic peptide substrate), MMP-12
T1 construct: In regard to MMP-12, catalytic domain (^100Phe˜^263Gly) was amplified with RT-PCR; His-tag; enterokinase digestion-site
Method: In regard to MMP-12, catalytic domain (^100Phe˜^263Gly) was amplified with RT-PCR from Human Placenta Total RNA. This was cloned in Escherichia coli expression vector pTrc99AHE inserted with His-tag sequence and enterokinase digestion-site, induced and expressed by IPTG (Isopropyl-β-D-thiogalactopyranoside) and expressed in an insoluble fraction. Isolation of MMP-12 from an insoluble fraction was carried out by dissolving in modifier (6 M urea) by a usual method and purification with metal chelate chromatography (Ni Chelateing Sepharose). And then removing modifier (6 M urea) with dialysis and refolding of the enzyme spontaneously gave activated MMP-12.
(§1) The enzymatic activity on MMPs was analyzed by the method described in “C. Graham Knight, Frances Willenbrock and Gillian Murphy: A novel coumarin-labelled peptide for sensitive continuous assays of the matrix metalloproteinases: FEBS LETT., 296, (1992), 263-266”. The substrate: MOCAc-Pro-Leu-Gly-Leu-A2Pr(DNP)-Ala-Arg-NH2 was purchased from Peptide Institute, Inc., Osaka, Japan. The measurement of the inhibitory activities (IC50) was carried out by the following four methods;
(§2) (A) Reaction with substrate, enzyme (MMPs) and inhibitor
(§3) (B) Reaction with substrate and inhibitor, without enzyme
(§4) (C) Reaction with substrate and enzyme (MMPs), without inhibitor
(§5) (D) Reaction with substrate only
(§6) IC50 values were calculated by using the following formula and each fluorescence values of above four methods (A to D).
(§7) % inhibition={1-(A−B)/(C−D)}×100
(§8) IC50 means the concentration required to inhibit 50% of the enzyme activity.
(§9) The value of inhibitory activity against MMP-2, MMP-8, MMP-9, MMP-12, and MMP-13 measured by above mentioned methods are shown in Table 25 and 26.

MMP-13 = target: T2, MMP-13 (Homo sapiens, UniProt P45452); assay: Assay for inhibitory activities on MMPs (fluorogenic peptide substrate), MMP-13
T2 construct: catalytic domain (^104Tyr˜^267Gly) was amplified with RT-PCR; His-tag; enterokinase digestion-site
Method: In regard to MMP-13, mRNA was prepared from carcinoma cell SW1353 derived from human cartilage stimulate by IL-1 and TNF, and catalytic domain (^[…]) was amplified with RT-PCR. This was cloned in Escherichia coli expression vector […] inserted with His-tag sequence and enterokinase digestion-site, induced and expressed by IPTG (Isopropyl-β-D-thiogalactopyranoside) and expressed in an insoluble fraction. Isolation of MMP-13 from an insoluble fraction was carried out by dissolving in modifier (6 M urea) by a usual method and purification with metal chelate chromatography (Ni […] Sepharose). And then removing modifier (6 M urea) with dialyze and refolding of the enzyme spontaneously gave activated MMP-13. The enzymatic activity on MMPs was analyzed by the method described in “C. Graham Knight, Frances Willenbrock and Gillian Murphy: A novel coumarin-labelled peptide for sensitive continuous assays of the matrix metalloproteinases: FEBS LETT., 296, (1992), 263-266”. The substrate: MOCAc-[…] was purchased from Peptide Institute, Inc., Osaka, Japan. The measurement of the inhibitory activities (IC50) was carried out by the following four methods; (A) Reaction with substrate, enzyme (MMPs) and inhibitor (B) Reaction with substrate and inhibitor, without enzyme (C) Reaction with substrate and enzyme (MMPs), without inhibitor (D) Reaction with substrate only IC50 values were calculated by using the following formula and each fluorescence values of above four methods (A to D). % inhibition={1-(A-B)/(C-D)}×100 IC50 means the concentration required to inhibit 50% of the enzyme activity. The value of inhibitory activity against MMP-2, MMP-8, MMP-9, MMP-12, and MMP-13 measured by above mentioned methods are shown in Table 25 and 26.

MMP-2 = target: T3, MMP-2 (Homo sapiens, UniProt P08253); assay: Assay for inhibitory activities on MMPs (fluorogenic peptide substrate), MMP-2
T3 sequence (P08253 110-660): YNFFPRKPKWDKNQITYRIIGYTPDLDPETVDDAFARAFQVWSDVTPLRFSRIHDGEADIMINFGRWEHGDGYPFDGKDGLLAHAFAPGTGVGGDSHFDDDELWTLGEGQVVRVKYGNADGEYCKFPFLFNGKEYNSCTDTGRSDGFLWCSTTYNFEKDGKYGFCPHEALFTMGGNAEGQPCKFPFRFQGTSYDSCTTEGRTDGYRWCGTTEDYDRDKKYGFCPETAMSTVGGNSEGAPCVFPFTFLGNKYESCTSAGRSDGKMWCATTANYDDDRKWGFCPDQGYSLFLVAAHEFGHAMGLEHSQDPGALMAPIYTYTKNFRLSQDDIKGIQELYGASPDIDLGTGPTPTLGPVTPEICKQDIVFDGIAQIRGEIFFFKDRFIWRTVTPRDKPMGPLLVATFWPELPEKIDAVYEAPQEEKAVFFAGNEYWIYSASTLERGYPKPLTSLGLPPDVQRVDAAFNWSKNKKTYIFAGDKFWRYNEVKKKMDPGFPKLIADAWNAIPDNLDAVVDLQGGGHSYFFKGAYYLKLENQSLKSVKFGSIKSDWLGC
Method: MMP-2 was purchased from Calbiochem-Novabiochem International, Inc.
as §1, §2, §3, §4, §5, §6, §7, §8, §9

MMP-8 = target: T4, MMP-8 (Homo sapiens, UniProt P22894); assay: Assay for inhibitory activities on MMPs (fluorogenic peptide substrate), MMP-8
T4 construct: In regard to MMP-8, catalytic domain (^99Phe˜^262Gly) was amplified with PCR; His-tag; enterokinase digestion-site
Excerpt: In regard to MMP-8, catalytic domain (^99Phe˜^262Gly) was amplified with PCR using commercial available Human Bone Marrow cDNA. This was cloned in Escherichia coli expression vector pTrc99AHE inserted with His-tag sequence and enterokinase digestion-site, induced and expressed by IPTG (Isopropyl-β-D-thiogalactopyranoside) and expressed in a insoluble fraction (Than F. Ho, M. Walid Qoronfleh, Robert C. Wahl, Trica A. Pulvino, Karen J. Vavra, Joe Falvo, Tracey M. Banks, Patricia G. Brake and Richard B. Ciccarelli: Gene expression, purification and characterization of recombinant human neutrophil collagenase. Gene 146, (1994) 297-301. It was prepared by the method in a slight modification). Isolation of MMP-8 from an insoluble fraction was carried out by dissolving in modifier (6 M urea) by a usual method and purification with metal chelate chromatography. And then removing modifier (6 M urea) with dialysis and refolding of the enzyme spontaneously gave activated MMP-8.
as §1, §2, §3, §4, §5, §6, §7, §8, §9

MMP-9 = MMP-9 (Homo sapiens, UniProt P14780); assay: Assay for inhibitory activities on MMPs (fluorogenic peptide substrate), MMP-9
Excerpt: MMP-9 was isolated and purified by the procedure of Y. Okada et al. (Yasunori Okada, Yukio Gonoji, Katsumi Naka, Katsuro Tomita, Isao Nakanishi, Kazushi Iwata, Kyoko Yamashita, and Taro Hayakawa: Matrix metalloproteinase 9 (92-kDa gelatinase/type IV collagenase) from HT1080 human fibrosarcoma cells. Purification and activation of the precursor and enzymic properties, J. Biol. Chem., 1992, 267, 21712-21719) in combination with other following methods: 1) Yasunori Okada, Tatsuhisa Morodomi, Jan J, Enghild, Ko Suzuki, Atsushi Yasui, Isao Nakanishi, Guy Salvesen and Hideaki Nagase: Matrix metalloproteinase 2 from human rheumatoid synovial fibroblasts. Purification and activation of the precursor and enzymic properties, Eur. J. Biochem., 1990, 194, 721-730; 2) Robin V Ward, Rosalind M Hembry, John J Reynolds and Gillian Murphy: The purification of tissue inhibitor of metalloproteinase-2 from its 72 kDa progelatinase complex. Biochem. J., 1991, 278, 179-187. In detail, human fibrosarcoma ATCC HT1080 cell line was cultured to confluent in Dulbecco's Modified Medium (DMEM) containing 10% fetal-calf serum at 37° C. for 48 hours. Subsequently, the medium of confluent culture was changed to serum-free DMEM medium. To obtain MMP-9, phorbol-12-myristate-13-acetate (TPA) must be added to this serum-free DMEM medium at a concentration of 50 ng/ml. The TPA-treated medium was centrifuged at 3000 rpm for 15 min, and the supernatant was concentrated to 450 ml by a Toyo-Roshi UP-20 apparatus with an ultrafiltration membrane. Then, proMMP-9 in this concentrated solution was purified by using columns of Gelatin-Sepharose and Concanavalin A-Sepharose. The pool containing proMMP-9 was dialyzed, concentrated (Toyo-Roshi UP-20) and applied to columns of Sephacryl S-200 and Green A matrix for the separation from TIMPs. The obtained proMMP-9 fraction was activated by TPCK-Trypsin (Final conc.: 3 μg/501 React Mix.).
as §1, §2, §3, §4, §5, §6, §7, §8, §9

T1 sequence (P39900 100-263): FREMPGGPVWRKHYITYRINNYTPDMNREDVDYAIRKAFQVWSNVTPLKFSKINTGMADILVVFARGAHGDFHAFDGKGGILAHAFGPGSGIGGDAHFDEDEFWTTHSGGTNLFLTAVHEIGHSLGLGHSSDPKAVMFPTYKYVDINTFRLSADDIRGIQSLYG
MMP-9, sequence (P14780 107-707): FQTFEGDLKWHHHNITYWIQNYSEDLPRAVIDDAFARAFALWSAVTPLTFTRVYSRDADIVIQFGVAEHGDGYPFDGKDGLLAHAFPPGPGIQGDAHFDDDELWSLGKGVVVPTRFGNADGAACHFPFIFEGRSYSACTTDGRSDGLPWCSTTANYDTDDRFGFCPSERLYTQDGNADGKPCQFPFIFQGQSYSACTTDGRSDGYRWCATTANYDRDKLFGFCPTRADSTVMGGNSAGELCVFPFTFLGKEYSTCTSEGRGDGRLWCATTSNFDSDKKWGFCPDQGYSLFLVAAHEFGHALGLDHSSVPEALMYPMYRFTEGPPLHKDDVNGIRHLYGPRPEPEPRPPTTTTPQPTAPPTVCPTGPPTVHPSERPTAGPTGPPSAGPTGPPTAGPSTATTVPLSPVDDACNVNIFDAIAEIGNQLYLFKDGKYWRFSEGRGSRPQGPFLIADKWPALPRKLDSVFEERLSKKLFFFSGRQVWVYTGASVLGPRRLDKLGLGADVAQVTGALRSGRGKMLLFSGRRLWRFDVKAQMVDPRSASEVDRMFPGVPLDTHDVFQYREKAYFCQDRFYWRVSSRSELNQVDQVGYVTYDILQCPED
T4 sequence (P22894 99-262): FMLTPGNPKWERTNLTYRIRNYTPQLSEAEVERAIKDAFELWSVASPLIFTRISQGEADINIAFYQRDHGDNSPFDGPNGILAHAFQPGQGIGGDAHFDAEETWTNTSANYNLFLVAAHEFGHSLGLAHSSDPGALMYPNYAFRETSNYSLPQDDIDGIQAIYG

Row | SMILES | IC50 (MMP-12) [nM] | IC50 (MMP-13) [nM] | IC50 (MMP-2) [nM] | IC50 (MMP-8) [nM] | IC50 (MMP-9) [nM]
1 | CC(C)(C)[C@H](NS(=O)(=O)c1ccc(-c2ccc(NC(=O)c3cc4ccccc4s3)cc2)cc1)C(=O)O [VI-49] | 98.8 | 10 | 241 | 158 | > 10000
2 | COc1ccc2cc(C#Cc3ccc(-c4ccc(S(=O)(=O)N[C@H](Cc5ccccc5)C(=O)O)cc4)cc3)ccc2c1 [III-28] | 2200 | 15.7 | > 5000 | > 5000 | > 5000
3 | COc1ccc2cc(C#Cc3ccc(-c4ccc(S(=O)(=O)N[C@H](C(=O)O)C(C)C)cc4)cc3)ccc2c1 [III-21] | 58.3 | 5.73 | > 4000 | 36.9 | > 10000
4 | C[C@@H](NS(=O)(=O)c1ccc(-c2ccc(NC(=O)c3ccc(OC(F)(F)F)cc3)cc2)cc1)C(=O)O [VI-21] | 522 | 36.8 | 105 | > 10000 | > 10000
5 | O=C(Nc1ccc(-c2ccc(S(=O)(=O)N[C@H](Cc3ccccc3)C(=O)O)cc2)cc1)c1cccs1 [VI-7] | 611 | 33.3 | 156 | 2350 | 4340
6 | COCC(NS(=O)(=O)c1ccc(-c2ccc(C#Cc3ccc4cc(OC)ccc4c3)cc2)cc1)C(=O)O (stereo not drawn) [III-50] | 125 | 13.8 | 50.6 | 243 | > 10000
7 | CCC(C)[C@H](NS(=O)(=O)c1ccc(-c2ccc(C#Cc3ccc4cc(OC)ccc4c3)cc2)cc1)C(=O)O (stereo partly drawn) [III-23] | 50.7 | 16.3 | 602 | 41.6 | > 10000
8 | CC(C)[C@@H](NS(=O)(=O)c1ccc(-c2ccc(C#Cc3ccc4ccccc4c3)cc2)cc1)C(=O)O [III-4] | 47.4 | 4.54 | 72.6 | 40.1 | > 10000
9 | COc1ccc2cc(C#Cc3ccc(-c4ccc(S(=O)(=O)N[C@H](CCSC)C(=O)O)cc4)cc3)ccc2c1 [III-24] | 146 | 6.32 | 239 | 190 | > 10000
10 | COc1ccc(C(=O)Nc2ccc(-c3ccc(S(=O)(=O)N[C@H](Cc4ccccc4)C(=O)O)cc3)cc2)cc1OC [VI-8] | 839 | 27.2 | 1050 | 723 | > 10000
11 | O=C(Nc1ccc(-c2ccc(S(=O)(=O)N[C@H](Cc3ccccc3)C(=O)O)cc2)cc1)c1ccc2ccccc2c1 [VI-10] | > 10000 | 21.4 | > 10000 | > 10000 | > 10000
12 | Cc1ccc(C(=O)Nc2ccc(-c3ccc(S(=O)(=O)N[C@H](C)C(=O)O)cc3)cc2)cc1 [VI-17] | 952 | 35.6 | 127 | > 10000 | > 10000
13 | COc1ccc2cc(C#Cc3ccc(-c4ccc(S(=O)(=O)N[C@@H](C(=O)O)c5ccc(O)cc5)cc4)cc3)ccc2c1 [III-51] | 536 | 128 | > 10000 | 508 | > 10000
14 | COc1ccc2cc(C#Cc3ccc(-c4ccc(S(=O)(=O)N[C@@H](Cc5ccccc5)C(=O)O)cc4)cc3)ccc2c1 [III-29] | > 10000 | 78.8 | > 10000 | 5300 | > 10000
15 | COc1ccc(C(=O)Nc2ccc(-c3ccc(S(=O)(=O)N[C@H](Cc4ccccc4)C(=O)O)cc3)cc2)cc1 [VI-3] | 1100 | 32.6 | 239 | > 10000 | > 10000
16 | O=C(O)[C@H](Cc1ccccc1)NS(=O)(=O)c1ccc(-c2ccc(C#Cc3ccc4ccccc4c3)cc2)cc1 [III-12] | 888 | 35.7 | 8990 | 270 | > 10000
17 | O=C(C#Cc1ccccc1)Nc1ccc(-c2ccc(S(=O)(=O)N[C@H](Cc3ccccc3)C(=O)O)cc2)cc1 [VI-13] | 503 | 27.2 | 167 | 641 | > 10000
18 | COc1ccc2cc(C#Cc3ccc(-c4ccc(S(=O)(=O)N[C@H](CC(=O)O)C(=O)O)cc4)cc3)ccc2c1 [III-26] | > 10000 | 3.85 | 5410 | 519 | > 10000

Reference: patent US20080119513A1, “Sulfonamide Derivative Selectively Inhibiting Mmp-13” (priority 2004, published 2008)
